Test in all cases: inhibition of tumour cell growth, NCI panel, 48 h
For experiment [1], the system named is MOLT-4 leukemia.
Experiment [2] concerns RPMI-8226 leukemia.
Experiment [3] deals with COLO 205 colon.
Experiment [4] has as its system SF-539 CNS.
Experiment [5] has as its system SK-MEL-5 melanoma.
The subject of experiment [6] is NCI-H226 lung.
For experiment [7], the system named is SF-268 CNS.
The test system of experiment [8] is T-47D breast.
The subject of experiment [9] is IGROV1 ovarian.
Experiment [10] concerns OVCAR-3 ovarian.

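In this assay, cells in 96-well plates receive the compound at five concentrations for 48 hours. Endpoints are linearly interpolated between the surrounding concentrations. GI50 = concentration required for 50% inhibition of growth. TGI: concentration producing complete growth inhibition.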 Bounds are passed on as bounds.

With `NC(=O)c1cc(-c2ccncc2)cc(-c2ccccc2)c1N`, the GI50 in experiment [1] is 20 µM; in experiment [2], 11.6 µM; in [3] it was 22.1 µM; in experiment [4] it was 10.8 µM; in experiment [5], 14.7 µM; in [6] it was 12.7 µM. Further, the GI50 in experiment [7] is more than 25 µM; in experiment [8], 9.57 µM; in [9], 9.48 µM; in experiment [10], 20.5 µM. In addition, the TGI in experiment [1], in experiment [2], in experiment [3], in experiment [4], in experiment [5] and in experiment [6] was more than 25 µM throughout. Moreover, the TGI in experiment [7], in experiment [8], in experiment [9] and in experiment [10] was more than 25 µM each time.

In the case of `Oc1c(C(Nc2cccc3ccccc23)c2ccccc2)ccc2cccnc12` (stereo not drawn), the GI50 in experiment [1] was 2.41 µM; in experiment [2], 2.36 µM; in [3], 4.17 µM; in experiment [4], 4.56 µM; in [5], 2.1 µM; in experiment [6], 2.17 µM. Also, the GI50 was 3.04 µM in [7], 4.75 µM in [8], 3.79 µM in experiment [9] and 3.79 µM in experiment [10]. Besides, the TGI in experiment [1] was more than 100 µM; in experiment [2] it was more than 100 µM; in [3], 17.7 µM; in [4], 21.4 µM; in experiment [5], 5.99 µM; in experiment [6], 8.06 µM. Moreover, the TGI is 28.7 µM in experiment [7], 58.3 µM in experiment [8], 11 µM in [9] and 19.1 µM in [10].

`CN(Cc1cnc(N)nc1N)c1ccc(C(=O)O)cc1`: the GI50 in experiment [1], in [2], in experiment [3], in experiment [4], in experiment [5] and in experiment [6] was more than 100 µM throughout. In addition, the GI50 in [7], in [8], in [9] and in [10] was more than 100 µM throughout. Further, the TGI in experiment [1], in experiment [2], in experiment [3], in experiment [4], in experiment [5] and in experiment [6] was more than 100 µM in each case. For the same compound, the TGI in experiment [7], in [8], in [9] and in experiment [10] was more than 100 µM throughout.

As for `NC1=NC(c2ccc(Cl)cc2)N(c2ccc(S(=O)(=O)Nc3ncccn3)cc2)C(N)=N1` (stereo not drawn), the TGI in [1], in experiment [2], in experiment [3], in [4], in experiment [5] and in [6] was more than 100 µM throughout. The TGI in experiment [7], in experiment [8], in experiment [9] and in experiment [10] was more than 100 µM each time.

On to `N#CC(C#N)=Cc1c(-c2ccccc2)[nH]c2ccccc12`, for which the GI50 in experiment [1] was 13.3 µM; in [2], 0.564 µM; in experiment [3], 1.76 µM; in experiment [4] it was 2.1 µM; in experiment [5], 1.08 µM; in experiment [6] it was 3.84 µM. For the same compound, the GI50 is 8.81 µM in experiment [7], 4.23 µM in experiment [8], 0.743 µM in experiment [9] and 1.66 µM in experiment [10]. For the same compound, the TGI was more than 75.1 µM in experiment [1]; 4.62 µM in [2]; 15 µM in experiment [3]; 9.12 µM in [4]; 12.8 µM in experiment [5]; more than 41.4 µM in [6]. The TGI in experiment [7] is more than 46.2 µM; in [8], more than 95.1 µM; in experiment [9], 31.9 µM; in [10], 5.29 µM.

With `CC[C@@]1(OC(=O)CN)C(=O)OCc2c1cc1n(c2=O)Cc2cc3cc4c(cc3nc2-1)OCO4`, the GI50 in experiment [1] was less than 0.01 µM; in experiment [2] it was less than 0.0104 µM; in [3], 0.127 µM; in experiment [4] it was less than 0.01 µM; in experiment [5] it was less than 0.01 µM; in [6], less than 0.01 µM. In addition, the GI50 is less than 0.01 µM in [7], less than 0.01 µM in experiment [8], less than 0.0145 µM in [9] and less than 0.0239 µM in experiment [10]. The TGI in [2] is 0.582 µM; in experiment [3], 1.53 µM; in experiment [4], less than 0.01 µM; in experiment [5] it was 0.134 µM; in experiment [6] it was 0.121 µM; in [8], more than 100 µM. Further, the TGI in [9] is 0.815 µM; in experiment [10], 0.412 µM.

Consider `O=C(/C=C/c1ccccc1)c1c[nH]c2ccccc2c1=O`, for which the GI50 in experiment [1] is 3.16 µM; in experiment [2], 2.23 µM; in experiment [3], 2.39 µM; in experiment [4], 2.55 µM; in experiment [5], 4.8 µM; in experiment [6], 4.81 µM. Also, the GI50 in experiment [7] was 2.81 µM; in [8], 3.05 µM; in experiment [9], 3.67 µM; in experiment [10], 2.03 µM. Further, the TGI in [1] is 20.8 µM; in [2], 7.62 µM; in experiment [3], 4.68 µM; in experiment [4], 8.81 µM; in experiment [5], 17 µM; in experiment [6] it was 17.3 µM. The TGI in [7] is 10.3 µM; in experiment [8], 17.1 µM; in [9] it was 16.4 µM; in experiment [10], 4.37 µM.

Turning to `O=C(CCN1CCOCC1)Nc1ccc(F)cc1F`, the TGI in [1], in [2], in [3], in experiment [4], in experiment [5] and in experiment [6] was more than 100 µM throughout. Besides, the TGI in experiment [7], in [8], in [9] and in [10] was more than 100 µM in each case.

Take `COc1ccc2c(c1)[C@]1(C[C@H]1c1ccc3c(/C=C/c4ccc(CN5C[C@@H](C)O[C@@H](C)C5)cc4)n[nH]c3c1)C(=O)N2`: the GI50 was 2.23 µM in [1]; 1.59 µM in experiment [2]; less than 0.0209 µM in experiment [3]; 1.63 µM in [4]; 1.77 µM in experiment [5]; 14.5 µM in [6]. Besides, the GI50 in experiment [7] was 4.63 µM; in experiment [8], 2.68 µM; in experiment [9], 9.69 µM; in [10], 4.19 µM. For the same compound, the TGI is more than 100 µM in [1]; more than 100 µM in [2]; 15.1 µM in [3]; 4.63 µM in [4]; 3.87 µM in [5]; more than 100 µM in experiment [6]. Also, the TGI in [7] was more than 90.6 µM; in [8], more than 86.9 µM; in experiment [9], more than 100 µM; in experiment [10], 18.5 µM.

On to `Cc1cc(=O)oc2c(CN3CCCCC3)c(O)ccc12`, for which the TGI in experiment [1], in [2], in experiment [3], in experiment [4], in experiment [5] and in experiment [6] was more than 100 µM each time. Further, the TGI in experiment [7], in experiment [8], in [9] and in [10] was more than 100 µM in each case.

In the case of `CN1CCN(CCCOc2cccc3nc(Nc4ccc(Cl)c(F)c4)ccc23)CC1`, the GI50 in experiment [1] is 1.82 µM; in experiment [2], 2.55 µM; in [3], 1.7 µM; in [4], 1.53 µM; in experiment [5] it was 1.78 µM; in experiment [6], 2.05 µM. Besides, the GI50 in experiment [7] was 1.72 µM; in [8], 1.78 µM; in [9], 1.95 µM; in experiment [10], 1.7 µM. In addition, the TGI in [1] amounted to 3.77 µM; in experiment [2], 5.88 µM; in [3], 3.34 µM; in [4], 3.04 µM; in experiment [5], 3.17 µM; in [6], 4.14 µM. Moreover, the TGI was determined as 3.46 µM in experiment [7], 4.02 µM in experiment [8], 4.31 µM in experiment [9] and 3.29 µM in experiment [10].

Turning to `Cc1cc(N2CCN(C)CC2)nc(NCc2cc(Nc3ccnc4cc(Cl)ccc34)ccc2F)n1`, the GI50 in experiment [1] is 1.9 µM; in [2], 2.2 µM; in [3], 0.71 µM; in experiment [4], 1.69 µM; in [5] it was 1.44 µM; in [6], 7.88 µM. Moreover, the GI50 in experiment [7] is 1.99 µM; in [8], 1.09 µM; in experiment [9], 2.04 µM; in experiment [10], 2 µM. For the same compound, the TGI in [1] was more than 100 µM; in experiment [2], 5.48 µM; in experiment [3], 2.12 µM; in experiment [4], 3.24 µM; in experiment [5] it was 2.75 µM; in experiment [6] it was 55.4 µM. Also, the TGI amounted to 7.76 µM in [7], 3.62 µM in [8], 7.26 µM in experiment [9] and 4.15 µM in experiment [10].

For the origin of these results see PubChem BioAssay (NCI).
